Earlier results in patent US7960102B2, “Regulated aptamer therapeutics” (Archemix Corp., priority 2002, dated 2011).

Target: N1 aptamer
Conditions: 10 nM labeled N1 aptamer, 1×SB, room temperature, three experiments; read-out: Kd of neomycin for aptamer (protection from T1 cleavage at G27)

Kd: 940 ± 60 nM
Substance: neomycin
